Results published in patent publication US11229714B2, “Electrochemical reduction or prevention of infections” (WASHINGTON STATE UNIVERSITY, priority 2015, dated 2022).

Tests used:
[1] = tested on: Acinetobacter baumannii biofilms; test: In vitro A. baumannii biofilm viable cell count (CFU, drop-plate); type: cell-based
Protocol: Acinetobacter baumannii biofilms were used to test efficacy of the e-scaffold. An overnight culture of Acinetobacter baumannii (ATCC #BAA-1605) was grown in full-strength Luria Broth (LB) medium (Sigma-Aldrich, catalog #L3522) and was re-suspended in 5% LB medium (OD600≈0.5). […] After 2 hours of initial attachment, the bacterial suspension was removed and the biofilms were washed twice to remove planktonic cells and then refreshed with 5% LB medium. Biofilms were allowed to develop for 24 hours. Before the e-scaffolds were applied, the bulk liquid was refreshed.
E-scaffolds were sterilized by autoclaving (121° C., 15 min) and were saturated with sterilized liquid medium before being applied to existing Acinetobacter baumannii biofilms. The scaffolds were then polarized at −600 mVAg/AgCl for 24 hours, after which biofilms were processed for the quantification of viable cells by scraping the e-scaffold and biofilms from the glass surfaces of the petri dish into 5 ml of LB medium (1 g/L). The suspensions were centrifuged, and the resulting cell pellet was re-suspended in 1 ml of LB medium (1 g/L), and serial dilutions were prepared. Colony-forming units (“CFU”) were counted using a drop-plate count method. […]
To test whether H2O2 can remove biofilms in vitro and from infected porcine explants, exogenous H2O2 (VWR, Catalog #RC3819-16, adjusted to a concentration similar to that produced by the e-scaffold) was added to Acinetobacter baumannii biofilms. […] First, the biofilms were exposed to the total calculated amount of H2O2 in a single administration. […]
Catalase (Sigma-Aldrich, catalog #C1345) was added to an Acinetobacter baumannii biofilm and measured protection against H2O2 produced by the e-scaffold. Prior to addition, the H2O2 decomposition rate per unit of catalase was determined from H2O2 microelectrode measurements. The total amount of catalase required per min for complete decomposition of H2O2 was calculated based on the rate of H2O2 generation by the e-scaffold. To ensure complete H2O2 decomposition, catalase was added in excess of the calculated value (5×=0.05 mg/ml). […]

[2] = tested on: P. aeruginosa PAO1 biofilm cells; test: Intracellular hydroxyl free radical formation (HPF fluorescence); type: cell-based, Pseudomonas aeruginosa; conditions: treated vs untreated biofilm cells
Protocol: Intracellular hydroxyl free radical (OH•) formation was detected using 5 μM of a fluorescent reporter dye, 3′-(p-hydroxyphenyl fluorescein) (HPF). […] The samples were centrifuged (10,000×g for 10 min), and then the medium was replaced with a final concentration of 5 μM HPF prepared in 500 μL of 0.1 M PBS. After staining in the dark at room temperature for 15 minutes, samples were centrifuged at 10,000×g for 10 min. Supernatant was removed, and cells were rinsed and re-suspended with PBS. An aliquot (100 μL) was added to each well in a 96-well plate, and fluorescence intensity was quantified using a microplate reader with excitation at 490 and emission at 515 nm. For the OH• formation assays, fluorescence was estimated as ((Fluorescence with dye− Fluorescence without dye)/(Fluorescence without dye))*(100).

[3] = tested on: P. aeruginosa PAO1 biofilm cells; test: SEM imaging of biofilm cells; type: cell-based, Pseudomonas aeruginosa; conditions: 24 h treatment
Protocol: For SEM imaging, biofilms were grown for 24 hours on UV-sterilized, 0.22 μm type GV membrane filters placed in sterile 6-well plates. Exogenous H2O2 was added continuously at an average 0.008 mmol/h for 24 hours to mimic the e-scaffold generated H2O2 treatment. After treatment for 24 hours, both e-scaffolds and membrane filters with biofilms were aseptically collected from the untreated, e-scaffold treated, and exogenous H2O2 treated wells. The membrane filters and e-scaffolds were fixed overnight with 2.5% glutaraldehyde and 2% paraformaldehyde in 0.1 M phosphate buffer, followed by rinsing with 0.1 M phosphate buffer. The membranes and e-scaffolds were then dehydrated gradually by being washed sequentially with 10%, 30%, 50%, 70%, and 95% alcohol (10 min each) and 100% alcohol (3×10 min each). Samples were then sputter-coated with gold prior to field emission in-lens scanning electron microscopy imaging.

[4] = tested on: P. aeruginosa PAO1 biofilms; conditions: general statement, no e-scaffold; cited from earlier work
[5] = tested on: P. aeruginosa PAO1 biofilms; test: Tobramycin susceptibility of P. aeruginosa PAO1 biofilms with or without e-scaffold (CFU); type: cell-based, Pseudomonas aeruginosa; conditions: biofilms regrown from persister cells, 10 μg/ml tobramycin, no e-scaffold
Protocol: For the following experiments, 20 g/L (1×) Luria broth (LB) medium (Sigma-Aldrich, catalog #L3522) was used to grow P. aeruginosa PAO1 cultures overnight, and 1 g/L (0.05×) LB was used as the growth medium for biofilms. Tobramycin (Sigma Aldrich, catalog #T4014) and ciprofloxacin (Sigma Aldrich, catalog #17850) solutions were diluted in 1 g/L (0.05×) LB for antibiotic susceptibility experiments and persister cell isolation, respectively. Minimum inhibitory concentrations (MICs) were determined for both antibiotics following the Clinical and Laboratory Standards Institute (CLSI) protocol. Other compounds used include 3′-p-hydroxyphenyl fluorescein dye (Invitrogen, catalog #H36004), propidium iodide (Invitrogen, catalog #L-7012), thiourea (AK Scientific, Inc., catalog #S726), and H2O2 (VWR, Catalog #RC3819-16).
Frozen stocks of P. aeruginosa PAO1 were cultured overnight in LB at 37° C. on a rotating table. For biofilm experiments, overnight culture was adjusted to OD600≈0.5 in LB and used as an inoculum. 2 ml of culture was used to inoculate sterile glass bottom petri dishes and allowed to form biofilms for 24 hours. Such one day-old biofilms were treated with e-scaffolds for 24 hours. Untreated and e-scaffold treated biofilm cells were then washed twice to remove loosely attached cells. Remaining cells were recovered for antibiotic susceptibility testing. […]

[6] = tested on: P. aeruginosa PAO1 persister cells; test: Treatment of persister cells isolated from ciprofloxacin-treated biofilms (CFU); type: cell-based, Pseudomonas aeruginosa
Protocol: (§1) To identify and isolate P. aeruginosa PAO1 persister cells, planktonic culture was grown to the stationary phase and the dose-dependent killing curve for ciprofloxacin (0-200 μg/ml) was investigated. […] Assessments were then performed on biofilms regrown from cells recovered after no treatment (“untreated biofilms”), cells recovered after e-scaffold treatment (“e-scaffold treated biofilm”), and “persister cells” that were isolated from biofilms treated with 200 μg/ml ciprofloxacin for 3.5 hours. The treated samples were washed with 0.9% NaCl and suspended in LB to isolate persister cells from ciprofloxacin-treated biofilms for subsequent experiments as described in more detail below.
The total number of viable cells was determined for ciprofloxacin-treated and untreated biofilms using the modified drop-plate cell counting method. Remaining persister cells were then exposed to either 200 μg/ml ciprofloxacin or e-scaffold treatment for 6 hours. Final CFU values were then determined.

[7] = tested on: P. aeruginosa PAO1 planktonic culture; test: Dose-dependent killing curve for ciprofloxacin, stationary phase planktonic culture; type: cell-based, Pseudomonas aeruginosa; conditions: 0-200 μg/ml, 200× of MIC
Protocol: as §1

OO [H2O2, hydrogen peroxide]
reduction in Acinetobacter baumannii CFU ([1]; 45 mM H2O2 in a single administration, vs control without H2O2): ~3 log
reduction in bacterial counts ([1]; equivalent concentration of H2O2 delivered continuously over 24 hours): ~2 log
HPF fluorescence (OH• formation) [2]: increased fluorescence
cell morphology in SEM images [3]: membrane-compromised cells

NC[C@H]1O[C@H](O[C@H]2[C@H](O)[C@@H](O[C@H]3O[C@H](CO)[C@@H](O)[C@H](N)[C@H]3O)[C@H](N)C[C@@H]2N)[C@H](N)C[C@@H]1O [tobramycin]
tobramycin typically required for P. aeruginosa PAO1 biofilm treatment [4]: > 500 × of MIC
reduction in viable cells [5]: 1.2±0.16 log

O=C(O)c1cn(C2CC2)c2cc(N3CCNCC3)c(F)cc2c1=O [ciprofloxacin]
change of final population of persister cells ([6]; additional 6 hours of 200 μg/ml ciprofloxacin treatment): did not change
share of total biofilm cells belonging to the persister population ([6]; biofilms treated with 200 μg/ml ciprofloxacin for 3.5 hours): about 0.31%
ciprofloxacin concentration above which the surviving subpopulation plateaus [7]: above 50 μg/ml

catalase
effect on biofilm ([1]; catalase itself (0.05 mg/ml)): no significant effect
